Entries after “also recorded” stand apart in the source; their conditions may differ. Like-named read-outs stand apart in the source and are kept apart here.
Legend:
[1] = target: T1, glucocorticoid receptor (GR) (Homo sapiens, UniProt P04150); assay: GR-driven (MMTV) luciferase reporter assay, agonist and antagonist mode; assay type: cell-based
T1 construct: expressed in transfected cells; host or cells: 293T
T1 sequence (P04150 1-777): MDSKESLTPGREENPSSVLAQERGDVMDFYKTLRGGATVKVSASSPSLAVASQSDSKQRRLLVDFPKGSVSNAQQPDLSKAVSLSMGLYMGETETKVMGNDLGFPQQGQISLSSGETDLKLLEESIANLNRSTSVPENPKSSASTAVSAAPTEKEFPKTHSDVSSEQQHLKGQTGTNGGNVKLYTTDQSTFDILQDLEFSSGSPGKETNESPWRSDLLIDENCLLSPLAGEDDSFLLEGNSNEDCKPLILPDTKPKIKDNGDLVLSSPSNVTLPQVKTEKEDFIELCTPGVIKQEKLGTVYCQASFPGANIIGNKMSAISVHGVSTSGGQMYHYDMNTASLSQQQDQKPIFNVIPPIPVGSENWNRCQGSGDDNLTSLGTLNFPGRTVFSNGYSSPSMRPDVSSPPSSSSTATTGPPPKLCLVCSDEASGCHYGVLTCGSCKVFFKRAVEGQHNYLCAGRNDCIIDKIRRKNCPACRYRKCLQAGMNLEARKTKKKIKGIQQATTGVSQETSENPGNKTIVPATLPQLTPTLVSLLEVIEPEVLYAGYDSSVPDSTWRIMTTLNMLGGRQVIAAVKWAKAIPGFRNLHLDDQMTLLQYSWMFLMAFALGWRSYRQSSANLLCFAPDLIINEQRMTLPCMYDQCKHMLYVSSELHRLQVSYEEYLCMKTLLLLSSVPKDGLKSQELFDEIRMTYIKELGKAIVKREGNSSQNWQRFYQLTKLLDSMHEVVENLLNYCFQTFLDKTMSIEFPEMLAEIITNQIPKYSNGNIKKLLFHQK
Description: For native gene expression, C2C12 myotubes were treated compounds for 24 h. For MMTV-Luc assay, steroid-deprived 293T cells were co-transfected with a GR expression plasmid and an MMTV-driven luciferase reporter plasmid. The next day, cells were treated with compounds for 24 hrs. Each point represents the average of triplicate biological measurements for a separate compound. B) AR Luc assay development. Steroid-deprived 293T cells were transfected with AR expression plasmid and an ARR3-tk-driven luciferase reporter. The next day cells were treated with increasing doses of the indicated compounds. Data shown are mean+SD of triplicate measurements. C) AR-Luc assay identified 5 GCs with some AR activity.
A) The effects of all tested compounds on IL-1β-induced IL-6 production (x-axes) versus GR interaction with the indicated peptides. B-C) The effects of all tested compounds on the indicated GC-regulated phenotypes (x-axes) versus GR interaction with the CHD9_1023 and CENPR_1 peptides (y-axes). D-F) COC plots. Each point represents the Pearson correlation coefficient, r, between a distinct gene expression or GR-peptide interaction assay with assays indicated on the x and y axes. G) The effects of all tested compounds on IL-1β-induced IL-6 production (y-axes) versus insulin-induced protein synthesis. […] IL-β-induced IL-6 production by A549 cells treated with the indicated compounds was compared by AlphaLISA. […] Mice in panel K were subjected to a lactate-tolerance test (LTT).
For inclusion in the statistical analyses, assays were required to show high reproducibility, with a Pearson correlation >0.8 between different experiments (FIG. 2, H; FIG. 9, A). […] We also analyzed the effects of the compounds on expression of Fkbp5, Pdk4, and Klf15 mRNAs in C2C12 myotubes, and MMTV-luciferase and androgen receptor (AR) driven-luciferase activity in 293T cells. Fkbp5 and Pdk4 are among the most highly expressed GR target genes, while Klf15 is a known GR target gene that inhibits protein synthesis and stimulates expression of genes that facilitate protein degradation (Shimizu et al., Cell Metabol. 13, 170-182, 2011). We also analyzed the effects of compounds on nuclear translocation of GR using a quantitative HTS approach (Htun et al., Proc. Natl. Acad. Sci. USA 93, 4845-4850, 1996). To visualize the variance of the compounds, we expressed the data as Z score for each assay, in units of standard deviation (FIG. 9, A). […] We used an AR-luciferase assay to test for androgenic activity (FIG. 9, B). From this we identified a handful compounds with AR activity >5% (FIG. 9, C).

C2C12 myotubes = assay: Insulin-induced protein synthesis (SUnSET, In-Cell Western) in C2C12 myotubes; assay type: cell-based, mouse; conditions: for effect on insulin-induced protein synthesis: differentiated myotubes, nutrient-deprived, insulin challenge
Description: A) C2C12 myotubes were assayed for chymotrypsin-like proteasomal activity. […] C) Quantitation of the ICW in panel B. D) ICW for surface expression of Glut4 on L6 myotubes. E) ICW for insulin-induced incorporation of puromycin into C2C12 myotube surface proteins. F-G) High-content imaging and analysis of C2C12 myoblasts stained with a Mitotracker dye. H) Assay reproducibility from screening 22 compounds on two separate occasions. The Pearson correlation coefficient, r, and its associated p-value is indicated.
C2C12 myocytes were used in all assays, except in the Glut4 translocation assay where L6 rat myocytes were used. ICW, In-Cell Western. Also see Methods.
(§1) To avoid such effects on myogenesis, we switched myoblasts to differentiation media, and then on day 4, added 10 μM cytarabine, a chemotherapy agent that kills dividing cells, and then adding GCs on day 6 or 7 and completing assays in day 8 (FIG. 8).
(§2) Physiologically, the effects of GCs on protein balance and Glut4 translocation vary in vivo depending upon the stressor. For example, GCs mediate atrophy in response to fasting but not exercise. […] To assess protein degradation, we measured chymotrypsin-like proteasomal activity (FIG. 2, A). The activating phosphorylation of AKT at Thr308 (pAKT) was measured using a LI-COR In-Cell Western assay (FIG. 2, B and C). The rate-limiting step in insulin-mediated glucose uptake is the translocation of the glucose transporter, Glut4, to the surface membrane, which we also measured by In-Cell Western without permeabilizing the myotubes (FIG. 2, D). Surface Sensing of Translation (SUnSET) (Schmidt et al., Nat Methods 6, 275-277, 2009) assay was used to measure protein synthesis by In-Cell Western, following treatment of myotubes with a low dose of puromycin, which incorporates into translating proteins, but at a low enough level to provide a readout for global protein synthesis (FIG. 2, E). Lastly, we developed a high-content imaging assay in myoblasts stained with a MitoTracker dye, so that individual mitochondrial networks could be visualized with adequate resolution to quantitate area, segmentation, branching, and fluorescence intensity which is a measure of mitochondrial membrane potential (ψm).

[2] = tested on: mitochondrial activity, pAKT, protein synthesis, and bone; assay: Compound profiling platform, overall profile (FIG. 15); assay type: cell-based; conditions: 10 uM
Description: N=4-6 from two different experiments. […] D) Mitochondrial activity was measured in myoblasts using high content imaging with mitotracker dye after 24 treatment. New amino acid incorporation was measured with LICOR in cell western for puromycin (SunSet assay). […] N=3, mean+SEM. […] N=4, mean+SEM, 2-way ANOVA.
as §1, §2
Additional studies were performed to assess activities of the various compounds identified from the previous profiling.

Row | SMILES | modulator profile (agonist/antagonist) [1] | EC50 ([1]; read-out: EC50 in a luciferase reporter assay) [nM] | IC50 ([1]; read-out: IC50 for GR-driven luciferase activity) [nM] | effect on insulin-induced protein synthesis (C2C12 myotubes) | overall profile in compound profiling (anabolic effects, agonism) [2] | IC50 ([1]; read-out: IC50 for displacing 10 nM Dex, antagonist mode, 10 nM Dex) [nM] | IC50 ([1]; read-out: IC50 in the reporter assay) [nM] | anabolic effect on protein synthesis in combination with Dex (C2C12 myotubes; C2C12 myotubes, with Dex) | EC50 ([1]; assay not given, read-out: EC50) [nM]
1 | C=CCOC1CC2(C)C(CCC2(O)C#CC)C2CCc3cc(C(=O)Nc4cccnc4C)ccc3C12 (centres unmarked) [SR11466] | partial agonist | 0.1 | 0.24 | slightly anabolic | anti-inflammatory but muscle sparing; also recorded: anabolic effects | – | – | – | –
2 | CC#CC1(O)CCC2C3CCc4cc(C(=O)Nc5cccnc5C)ccc4C3C(OCc3ccccc3Cl)CC21C (centres unmarked) [SR16024] | full antagonist | – | – | doubling; also recorded: robustly stimulated protein synthesis | more antagonistic SGRMs; also recorded: anabolic effects | 1 | 1.5 | right-shift in the dose curve; also recorded: Dex inhibits | –
3 | CC#CC1(O)CCC2C3CCc4cc(C(=O)Nc5cccnc5C)ccc4C3C(OCc3ccc(Cl)cc3)CC21C (centres unmarked) [SR16025] | – | – | – | – | more antagonistic SGRMs; also recorded: anabolic effects | – | – | – | –
4 | CC#CC1(O)CCC2C3CCc4cc(C(=O)Nc5cnccc5C)ccc4C3C(O)CC21C (centres unmarked) [SR15421] | – | – | – | – | anabolic effects | – | – | – | 240
